The source of these data is US20210113519A1, “Compositions and Methods for Modulating Permeability of Biological Barriers” (Carnegie Mellon University, priority 2018, published 2021).

“Also recorded” adds a separate entry of the source.

The subject of one assay is Caco-2 monolayers. Kind of assay: Calcein permeability assay through Caco-2 monolayers. In kind it is cell-based, human. Conditions: for calcein permeability, known phenolic compounds from strawberry: 1 mg/mL; for calcein permeability, anthocyanidins: applied at 0.33 mg/ml, vs untreated control. Here is the method:
(§1) Caco-2 Cell Monolayers: Caco-2 cells were seeded in Basal Seeding Medium (BSM) on a collagen-coated, 24-Multiwell Insert […]® Plate at a concentration of 2×10^5 cells per well. The plate was incubated at 37° C. for one to two days. On the third day, the BSM was replaced with Enterocyte Differentiation Medium (EDM). The plate was then incubated one to two more days at 37° C. to allow complete formation of differentiated monolayers.
Permeability Assays: The paracellular diffusion markers were applied at 0.5 mM (calcein) or 0.1 mM (4 kDa FITC-Dextran), dissolved in EDM with the treatment extracts, to the apical side of fully-formed monolayers (TEER>200 Ω·cm^2). Fresh EDM with the markers was used as a negative control. After one hour, media in the basal chambers was sampled and examined for fluorescence at 495/515 nm. Application of calibration curves yielded an amount of mass transferred across each monolayer, which was used in the permeability equation Papp=ΔM/CaAΔt, where Papp is the apparent permeability through the monolayer, ΔM is the marker mass in the basal compartment, Ca is the apical marker concentration, A is the monolayer area, and Δt is the time between samples. Permeability measurements are expressed as the ratio of monolayer permeability at 3 hours after treatment addition to permeability before treatment addition, normalized to any change in negative control monolayers during that time.

The subject of the next assay is intestinal barrier. Kind of assay: Oral FITC-DX4 (4 kDa dextran) absorption in mice after oral enhancer. It counts as in vivo. Conditions: pelargonidin 40 mg/kg oral, then FITC-DX4 600 mg/kg oral. On the procedure:
Examination of strawberry extract efficacy in vivo: For dextran efficacy studies, fasted mice were orally gavaged with 600 mg/kg STRB PPh solutions or 40 mg/kg pelargonidin solutions, then gavaged three hours later with 600 mg/kg FITC-DX4. Three hours after the dextran gavage, blood was collected and centrifuged. The serum was removed and examined for FITC concentration by reading for fluorescence on the plate reader and comparing to a unique calibration curve for each experiment. For larger macromolecule studies, 40 kDa dextran (FITC-DX40) was substituted at the same 600 mg/kg concentration.

For another assay, the system named is intestinal epithelium. The assay can be described thus: Insulin delivery study: blood glucose in mice after oral enhancer and intestinal insulin injection. In kind it is in vivo. Here is the method: For insulin delivery studies, mice were orally gavaged with PBS (for control) or strawberry treatments (600 mg/kg STRB PPh or 40 mg/kg pelargonidin). One hour later, their initial blood sugar was measured and the animals were placed under anesthesia. Their intestines were surgically exposed, and insulin was injected at the predetermined dose (1 unit per kg body weight unless otherwise specified) into the duodenum of the small intestine, avoiding digestion in the stomach. The mice were closed and secured with tissue adhesive, then kept under anesthesia as their blood sugar levels were monitored each hour for five hours. For comparison to the current standard of insulin delivery, subcutaneous injections were given at 1 U/kg to additional mice, into the scruff on their necks. To determine areas above the curve for each mouse, trapezoidal integration was used to sum the area between known points on the blood glucose curve and the starting blood glucose value for the individual animal.

Assay [1] concerns Caco-2 intestinal epithelial cell monolayers. Kind of assay: TEER (transepithelial electrical resistance) assay on Caco-2 monolayers. In kind it is cell-based, human. On the procedure: as §1
TEERAssay: All TEER (transepithelial electrical resistance) values were measured using a voltohmmeter. Between each TEER measurement, the plate was incubated at 37° C. for a minimum of fifteen minutes to allow the cells to rest. To ensure that all the wells contained fully formed Caco-2 monolayers (>200 Ω·cm^2), initial TEER values were measured prior to treatment exposure. After adding the extracts to each well, TEER values were measured at defined intervals for a total of three hours. The treatments were then aspirated, and the cells rinsed with PBS before refilling the wells with fresh EDM. The plates were then left in the incubator at 37° C. for 24 hours, when recovery TEER values were measured.

[2] abbreviates: pelargonidin between 0.33 and 1.00 mg/mL.

Take `OC[C@H]1O[C@@H](Oc2cc3c(O)cc(O)cc3[o+]c2-c2ccc(O)cc2)[C@H](O)[C@@H](O)[C@@H]1O` [callistephin, reference compound]: the “calcein permeability, known phenolic compounds from strawberry” value in the assay with Caco-2 monolayers is given as “not an effective permeation enhancer”.

With `COc1cc(-c2[o+]c3cc(O)cc(O)c3cc2O)cc(OC)c1O.[Cl-]` [malvidin], in the assay with Caco-2 monolayers, the “calcein permeability, anthocyanidins” value is given as “increase the permeability of calcein; also recorded: statistically significant increases”.

For the compound `Oc1ccc(-c2[o+]c3cc(O)cc(O)c3cc2O)cc1` [pelargonidin], in the assay with intestinal barrier, the “FITC-DX4 absorption across the intestinal barrier vs saline (PBS) gavage” value is “doubled”. Also, the “duration of hypoglycemia vs 1 U/kg subcutaneous insulin” value in the assay with intestinal epithelium (pelargonidin 40 mg/kg oral + 1 U/kg intestinal insulin) was “sustained hypoglycemia several hours longer”. The “total pharmacodynamic effect (area above the curve) relative to subcutaneous insulin” value with intestinal epithelium (pelargonidin 40 mg/kg oral + 1 U/kg intestinal insulin vs 1 U/kg subcutaneous) was “approximately 1.3 times”. The relative bioactivity value in the assay with intestinal epithelium (pelargonidin 40 mg/kg oral + 1 U/kg intestinal insulin vs 1 U/kg subcutaneous insulin, AAC) is 130%. Moreover, the “blood glucose response to intestinal insulin” value with intestinal epithelium (pelargonidin 40 mg/kg oral, one hour later 1 U/kg insulin intestinal injection, vs saline gavage) is “substantial reduction in blood glucose; also recorded: sustained reductions in blood glucose levels”. Further, the “calcein permeability, known phenolic compounds from strawberry” value with Caco-2 monolayers was “effective permeation enhancer; also recorded: significantly increased the permeability of calcein”. In the assay on Caco-2 monolayers, the “calcein permeability, anthocyanidins” value is reported as “increase the permeability of calcein; also recorded: statistically significant increases”. Moreover, the “improvement of calcein permeability, dose response” value with Caco-2 monolayers (setting [2]) is “dose dependence was also evident”. The “permeabilization and recovery of barrier function” value in assay [1] (0.33 mg/ml) is given as “substantial yet reversible permeabilization”; in assay [1] (0.67 mg/ml), “substantial yet reversible permeabilization”; in assay [1] (1 mg/ml), “opened the tight junctions beyond their ability to recover barrier function”. The “recovery of barrier function within 24 hours (TEER)” value in assay [1] (pelargonidin 0.33, 0.67 and 1.00 mg/mL) is recorded as “only the two lower concentrations recovered their barrier function”. Moreover, the “TEER response (opening of tight junctions)” value in assay [1] (setting [2]) is “dose-dependent opening of the tight junctions”.

Turning to `COc1cc(-c2[o+]c3cc(O)cc(O)c3cc2O)cc(O)c1O` [petunidin], in the assay on Caco-2 monolayers, the “calcein permeability, anthocyanidins” value was “increase the permeability of calcein; also recorded: statistically significant increases”.

Consider “insulin: bovine pancreas insulin [reference compound]”, for which, in the assay with intestinal epithelium (1 U/kg subcutaneous insulin dose), the “blood glucose response to subcutaneous insulin” value was “pronounced but brief response”.
